The source of these data is publication PMC7999658, “Characterization of P-Glycoprotein Inhibitors for Evaluating the Effect of P-Glycoprotein on the Intestinal Absorption of Drugs” (Pharmaceutics, 2021).

The target in series [1] is T1, P-gp (Homo sapiens, UniProt P08183).
T1 construct: host or cells: Caco-2
Briefly: Inhibition of P-gp-mediated transport of paclitaxel across Caco-2 cell monolayers. In kind it is cell-based.
Protocol: Caco-2 cells from Dainippon Sumitomo Pharma (Osaka, Japan) were cultured in DMEM supplemented with 10% heat-inactivated fetal bovine serum, 1% antibiotic-antimycotic, 1% nonessential amino acids, and 2 mM L-glutamine [31]. Cells were maintained at 37 °C in 5% CO2/95% air and passaged upon reaching approximately 80% confluence using 0.25% trypsin/1 mM EDTA solution. For transport experiments, Caco-2 cells were grown on a polyethylene terephthalate insert (0.4 μm pore size, 12 mm diameter) at 1.0 × 10^5 cells/well, and cultured for 14–21 days with the replacement of the medium once every 2 days. Caco-2 cells used in this study were within the passage range of 55 through 70.
(§1) The efflux ratio (ER) was calculated using Equation (3) ER = Papp,BA/Papp,AB(3) where Papp,AB and Papp,BA are the Papp values for AP-to-BL and BL-to-AP transport, respectively.
(§2) IC50 values of Papp,BA and ER were also determined using Equation (4).

The target of series [2] is T2, BCRP (Homo sapiens, UniProt Q9UNQ0).
T2 sequence (Q9UNQ0 1-655): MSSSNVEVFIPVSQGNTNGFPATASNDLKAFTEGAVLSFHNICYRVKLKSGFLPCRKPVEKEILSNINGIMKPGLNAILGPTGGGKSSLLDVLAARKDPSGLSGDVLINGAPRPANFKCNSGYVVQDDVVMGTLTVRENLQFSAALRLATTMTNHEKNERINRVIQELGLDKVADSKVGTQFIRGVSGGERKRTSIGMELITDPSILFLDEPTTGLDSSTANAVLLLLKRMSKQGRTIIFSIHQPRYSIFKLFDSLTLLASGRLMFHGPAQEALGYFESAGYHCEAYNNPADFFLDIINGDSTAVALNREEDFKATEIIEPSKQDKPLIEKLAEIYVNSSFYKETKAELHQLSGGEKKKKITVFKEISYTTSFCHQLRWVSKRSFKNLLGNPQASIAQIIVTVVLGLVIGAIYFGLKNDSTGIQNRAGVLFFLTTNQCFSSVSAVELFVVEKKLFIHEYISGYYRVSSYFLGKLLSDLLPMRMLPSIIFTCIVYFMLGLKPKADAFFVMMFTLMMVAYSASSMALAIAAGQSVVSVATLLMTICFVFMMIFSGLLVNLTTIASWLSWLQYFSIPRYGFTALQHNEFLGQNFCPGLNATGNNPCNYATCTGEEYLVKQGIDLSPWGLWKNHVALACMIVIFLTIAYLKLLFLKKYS
Briefly: Inhibition of BCRP-mediated transport of mitoxantrone across Caco-2 cell monolayers. The settings on record: Caco-2 monolayers.
Protocol: For transport experiments, Caco-2 cells were grown on a polyethylene terephthalate insert (0.4 μm pore size, 12 mm diameter) at 1.0 × 10^5 cells/well, and cultured for 14–21 days with the replacement of the medium once every 2 days. Caco-2 cells used in this study were within the passage range of 55 through 70.
as §1, §2

The subject of series [3] is P-gp. On the set-up: method as in PMID 18678495. The settings on record: cited from earlier work.
For series [4] the following is noted: for BA of paclitaxel: paclitaxel 20 mg/kg po vs 5 mg/kg IV.
The conditions of series [5]: paclitaxel 10 mg/kg po.
The nature of series [6]: in vivo. The settings on record: FVB, mouse.
A short description of series [7]: in vivo. The settings on record: FVB, mouse, oral, 10 mg/kg.
For series [8] the following is noted: topotecan 2 mg/kg po; for concentration at 30 min: FVB, mouse, oral, 2 mg/kg.
Protocol: Food and water were available ad libitum.
The flow rate was 1.0 mL/min.
The subject of series [9] is Caco-2 cell monolayers. Briefly: Caco-2 monolayer transport study: paracellular marker permeability and mass balance (% recovery). The class given is in vitro ADME, human. As to conditions: Caco-2 monolayers, lucifer yellow 100 μM.
Setting [10] is: Caco-2 monolayers, 50% decrease of efflux ratio, read-out: IC50 on ER of paclitaxel.
The mark [11] stands for this setting: Caco-2 monolayers, paclitaxel 5 μM, 50% decrease of Papp,BA, read-out: IC50 on Papp,BA of paclitaxel.
Setting [12] is: Caco-2 monolayers, paclitaxel 5 μM, inhibitor concentration to achieve 50% increase of Papp,AB, read-out: IC50 on Papp,AB of paclitaxel.
The mark [13] stands for this setting: IC50 on Papp,BA of mitoxantrone, mitoxantrone 5 μM, 50% decrease of Papp,BA.
[14] abbreviates: paclitaxel 20 mg/kg po, WT mice.
The mark [15] stands for this setting: portal vein plasma, po, 20 mg/kg.
The mark [16] stands for this setting: systemic (abdominal vein) plasma, po, 20 mg/kg.
The mark [17] stands for this setting: male, portal vein plasma, po, 20 mg/kg.
The mark [18] stands for this setting: male, systemic (abdominal vein) plasma, po, 20 mg/kg.
The mark [19] stands for this setting: systemic (abdominal vein) plasma.
Setting [20] is: male, systemic (abdominal vein) plasma.

Where two headings read alike, the source gives them in different places.

T1 sequence (P08183 whole entry): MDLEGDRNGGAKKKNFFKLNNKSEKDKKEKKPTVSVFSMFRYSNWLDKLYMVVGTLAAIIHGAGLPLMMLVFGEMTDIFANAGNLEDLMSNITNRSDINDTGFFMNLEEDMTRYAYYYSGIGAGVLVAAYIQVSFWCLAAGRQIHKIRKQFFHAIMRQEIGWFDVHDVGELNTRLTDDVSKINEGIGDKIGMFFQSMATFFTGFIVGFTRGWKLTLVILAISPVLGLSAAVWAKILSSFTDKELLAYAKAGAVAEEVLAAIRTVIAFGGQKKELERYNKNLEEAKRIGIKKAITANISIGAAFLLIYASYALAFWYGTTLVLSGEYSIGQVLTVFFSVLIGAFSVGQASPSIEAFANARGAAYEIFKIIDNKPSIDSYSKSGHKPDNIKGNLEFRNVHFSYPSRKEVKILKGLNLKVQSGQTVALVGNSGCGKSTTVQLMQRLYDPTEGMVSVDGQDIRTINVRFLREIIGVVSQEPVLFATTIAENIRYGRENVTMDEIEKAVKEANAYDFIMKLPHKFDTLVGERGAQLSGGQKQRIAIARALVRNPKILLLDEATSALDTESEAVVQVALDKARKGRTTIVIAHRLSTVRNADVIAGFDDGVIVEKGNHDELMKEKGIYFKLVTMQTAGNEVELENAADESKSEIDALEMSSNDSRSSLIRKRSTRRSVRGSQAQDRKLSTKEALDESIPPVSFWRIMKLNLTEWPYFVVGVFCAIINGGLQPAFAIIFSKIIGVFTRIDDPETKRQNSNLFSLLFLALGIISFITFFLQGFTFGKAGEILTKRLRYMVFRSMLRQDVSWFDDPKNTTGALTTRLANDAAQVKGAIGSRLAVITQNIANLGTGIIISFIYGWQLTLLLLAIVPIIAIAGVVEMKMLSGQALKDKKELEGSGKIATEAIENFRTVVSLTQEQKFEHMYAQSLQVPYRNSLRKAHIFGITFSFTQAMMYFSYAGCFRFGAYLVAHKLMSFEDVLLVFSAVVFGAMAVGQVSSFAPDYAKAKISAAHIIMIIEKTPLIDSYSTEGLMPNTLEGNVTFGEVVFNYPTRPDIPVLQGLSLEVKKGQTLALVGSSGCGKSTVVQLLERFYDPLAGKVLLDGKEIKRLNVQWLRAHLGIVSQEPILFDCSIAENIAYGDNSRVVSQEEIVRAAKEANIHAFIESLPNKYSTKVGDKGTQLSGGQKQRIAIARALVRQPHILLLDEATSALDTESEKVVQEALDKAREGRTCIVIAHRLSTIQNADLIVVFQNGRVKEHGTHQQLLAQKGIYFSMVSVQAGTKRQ

Turning to `CCOC/C=C/c1ccc(-c2nc(-c3ccc(NC(C)C)cc3)c(-c3ccc(NC(C)C)cc3)[nH]2)cc1` [OC144-093, (E)-4,4’-(2-(4-[3-ethoxyprop-1-en-1-yl]phenyl)-1H-imidazole-4,5-diyl)bis(N-isopropylaniline)], the “transport of paclitaxel in Caco-2 cells on addition of inhibitor” value in [1] (0.01-10 μM inhibitor) is reported as “not changed”. Moreover, the “Hill coefficient, ER of mitoxantrone” value in [2] stood at 3.61 ± 0.41.
Take `COc1cc(C(=O)C(=O)N2CCCC[C@H]2C(=O)OC(CCCc2cccnc2)CCCc2cccnc2)cc(OC)c1OC` [VX-710, (S)-N-(2-Oxo-2-(3,4,5-trimethoxyphenyl)-acetyl)piperidine-2-carboxylic acid 1,7-bis(3-pyridyl)-4-heptyl ester]: the “Hill coefficient, ER of paclitaxel” value in series [1] (Caco-2 monolayers) is 1.68 ± 0.38. Also, the IC50 came to 871 ± 277 nM in series [1] (setting [10]); 4500 ± 84 nM in [1] (setting [11]); 2680 ± 53 nM in [1] (setting [12]); 1640 ± 520 nM in series [2] (IC50 on ER of mitoxantrone, 50% decrease of efflux ratio); 2680 ± 31 nM in series [2] (setting [13]). Also, the “Hill coefficient, ER of mitoxantrone” value in series [2] came to 0.46 ± 0.12.
`COc1cc2c(cc1OC)CN(CCc1ccc(NC(=O)c3cc(OC)c(OC)cc3NC(=O)c3cnc4ccccc4c3)cc1)CC2` [XR9576, N-(2-([(4-(2-[3,4-Dihydro-6,7-dimethoxy-2(1H)-isoquinolinyl]ethyl)phenyl)amino]carbonyl)-4,5-dimethoxyphenyl)-3-quinolinecarboxamide]: the “Hill coefficient, ER of paclitaxel” value in series [1] (Caco-2 monolayers) came out at 3.41 ± 0.28. In series [1] (Caco-2 monolayers), the “basal-to-apical transport of paclitaxel” value is reported as “significantly decreased”. The half-maximal inhibitory concentration (IC50) was 46 ± 19 nM in [1] (setting [10]); 64 ± 40 nM in series [1] (setting [11]); 234 ± 61 nM in series [1] (setting [12]); 1000 ± 45 nM in series [2] (setting [13]); 531 ± 162 nM in [2] (read-out: IC50 on ER of mitoxantrone, 50% decrease of efflux ratio). The “IC50 for P-gp-mediated Hoechst 33342 transport lower than that for BCRP-mediated Hoechst 33342 transport” value in series [3] is reported as “approximately 20.1 fold”. Also, the “Hill coefficient, ER of mitoxantrone” value in [2] is reported as 0.44 ± 0.05.
With `CC(=O)O[C@H]1C(=O)[C@@]2(C)[C@H]([C@H](OC(=O)c3ccccc3)[C@]3(O)C[C@H](OC(=O)[C@H](O)[C@@H](NC(=O)c4ccccc4)c4ccccc4)C(C)=C1C3(C)C)[C@]1(OC(C)=O)CO[C@@H]1C[C@@H]2O` [paclitaxel], the t1/2 of paclitaxel in series [4] (paclitaxel 5 mg/kg IV, WT mice) came out at 2.38 h; in [4] (paclitaxel 20 mg/kg po, mdr1a/1b KO mice, pv), 1.25 h. The “AUCpv of paclitaxel, mdr1a/1b KO mice versus WT mice” value in series [4] (paclitaxel 20 mg/kg po) is on record as 3.3 fold. Also, the “AUCsys of paclitaxel, mdr1a/1b KO mice higher than WT mice” value in [4] (paclitaxel 20 mg/kg po) is recorded as “approximately 2.8 fold”. The “BA of paclitaxel, mdr1a/1b KO mice versus WT mice” value in series [4] (paclitaxel 20 mg/kg po) worked out at 2.5 fold. Also, in series [4] (paclitaxel 20 mg/kg po), the “Cmax of paclitaxel in portal vein, mdr1a/1b KO mice versus WT mice” value was determined as 3.5 fold. The “Cmax of paclitaxel in systemic circulation, mdr1a/1b KO mice versus WT mice” value in series [4] (paclitaxel 20 mg/kg po) is reported as 2.7 fold. For the same compound, the “FaFg of paclitaxel, mdr1a/1b KO mice versus WT mice” value in series [4] (paclitaxel 20 mg/kg po) is 4.0 fold. Also, the BA of paclitaxel was found to be 11.7% in [4] (WT mice) and 29.0% in series [4] (mdr1a/1b KO mice). In addition, the FaFg of paclitaxel is recorded as 16.6% in series [4] (setting [14]) and 66.3% in series [4] (paclitaxel 20 mg/kg po, mdr1a/1b KO mice). The same compound returned a Fh of paclitaxel in series [4] (setting [14]) of 70.6. The Cmax was determined as 2520 nM in series [4] (read-out: Cmax of paclitaxel, paclitaxel 20 mg/kg po, mdr1a/1b KO mice, pv); 1180 nM in [6] (setting [16]); 730 nM in [6] (setting [17]); 442 nM in series [6] (setting [18]). Also, the “V of paclitaxel, mdr1a/1b KO mice versus WT mice” value in series [5] (10 min) was “approximately 3.5 fold”; in series [5] (30 min), “approximately 5.1 fold”. The “Absorption Rate V of paclitaxel” value in series [5] (10 min, WT mice, no inhibitor) is on record as 15.7 nmol/min/kg; in [5] (10 min, mdr1a/1b KO mice) it was 54.3 nmol/min/kg; in series [5] (30 min, WT mice, no inhibitor) it was 12.4 nmol/min/kg; in series [5] (30 min, mdr1a/1b KO mice), 63.7 nmol/min/kg. The Cpv of paclitaxel in series [5] (10 min, WT mice, no inhibitor) is 439 ± 98 nM; in [5] (10 min, mdr1a/1b KO mice) it was 967 ± 191 nM. For the same compound, the “Cpv − Csys of paclitaxel” value is 216 ± 80 nM in [5] (10 min, WT mice, no inhibitor); 749 ± 165 nM in [5] (10 min, mdr1a/1b KO mice); 165 ± 61 nM in series [5] (30 min, WT mice, no inhibitor); 847 ± 144 nM in series [5] (30 min, mdr1a/1b KO mice). The AUC in series [6] (plasma, iv, 5 mg/kg) came to 2.66 µM·h; in series [6] (setting [15]), 6.58 µM·h; in series [6] (setting [16]), 3.09 µM·h; in series [6] (male, plasma, iv, 5 mg/kg), 2.32 µM·h; in [6] (setting [17]), 2 µM·h; in series [6] (setting [18]), 1.09 µM·h. Moreover, the MRT in series [6] (plasma, iv, 5 mg/kg) came to 1.47 h; in series [6] (setting [15]), 2.16 h; in [6] (setting [16]) it was 3.09 h; in series [6] (male, plasma, iv, 5 mg/kg) it was 1.71 h; in series [6] (setting [17]), 2.51 h; in series [6] (setting [18]) it was 2.29 h. Besides, the Vd in [6] (plasma, iv, 5 mg/kg) is 4.15 L/kg; in [6] (male, plasma, iv, 5 mg/kg), 4.32 L/kg. Besides, the clearance is 36.7 mL/min/kg in [6] (plasma, iv, 5 mg/kg) and 42 mL/min/kg in [6] (male, plasma, iv, 5 mg/kg). The half-life was 2.12 h in series [6] (plasma, iv, 5 mg/kg); 2 h in [6] (systemic plasma, po, 20 mg/kg); 1.62 h in [6] (setting [17]); 1.37 h in [6] (male, systemic plasma, po, 20 mg/kg). The Tmax in series [6] (setting [15]), in series [6] (setting [16]), in series [6] (setting [17]) and in series [6] (setting [18]) was 1 h each time. For the same compound, the k el in series [6] (setting [15]) was 0.000153 s⁻¹; in series [6] (setting [16]) it was 9.72e-05 s⁻¹; in [6] (setting [17]) it was 0.000119 s⁻¹; in series [6] (setting [18]) it was 0.000139 s⁻¹. For the same compound, the concentration at 10 min in series [7] (portal vein plasma) amounted to 967 nM; in series [7] (setting [19]) it was 218 ± 100 nM; in series [7] (male, portal vein plasma) it was 439 nM; in series [7] (setting [20]), 223 ± 76 nM. In addition, the concentration at 30 min in series [7] (portal vein plasma) was determined as 1090 ± 118 nM; in [7] (setting [19]), 245 ± 69 nM; in series [7] (male, portal vein plasma) it was 328 ± 41 nM; in series [7] (setting [20]) it was 135 ± 41 nM.
As to `CC[C@@]1(O)C(=O)OCc2c1cc1n(c2=O)Cc2cc3c(CN(C)C)c(O)ccc3nc2-1` [topotecan], the concentration at 30 min stood at 236 ± 30 nM in [8] (plasma (portal vein), Cpv of topotecan, mdr1a/1b KO mice); 398 ± 88 nM in series [8] (plasma (systemic circulation, abdominal vein), Csys of topotecan, bcrp KO mice); 207 ± 28 nM in series [8] (plasma (systemic circulation, abdominal vein), Csys of topotecan, mdr1a/1b KO mice); 469 nM in [8] (portal vein plasma, Cpv of topotecan, bcrp KO mice); 179 ± 25 nM in series [8] (male, plasma (systemic circulation, abdominal vein), Csys of topotecan, WT mice, no inhibitor); 196 ± 29 nM in series [8] (male, portal vein plasma, Cpv of topotecan, WT mice, no inhibitor). Besides, the “V of topotecan, bcrp KO mice versus WT mice” value in series [8] (30 min) is recorded as “approximately 4.1 fold”. In series [8] (30 min), the “V of topotecan, bcrp KO mice versus mdr1a/1b KO mice” value is on record as roughly 2.4 fold. The “Absorption Rate V of topotecan” value in [8] (30 min, WT mice, no inhibitor) is 1.29 nmol/min/kg; in series [8] (30 min, bcrp KO mice), 5.30 nmol/min/kg; in series [8] (30 min, mdr1a/1b KO mice), 2.17 nmol/min/kg. Moreover, the “Cpv − Csys of topotecan” value in series [8] (30 min, WT mice, no inhibitor) came out at 17.1 ± 5.7 nM; in series [8] (30 min, bcrp KO mice), 70.5 ± 20 nM; in series [8] (30 min, mdr1a/1b KO mice), 28.9 ± 8.4 nM. In addition, the Cpv of topotecan in series [8] (30 min, bcrp KO mice) stood at 469 ± 64 nM.
For lucifer yellow, the “Papp,AB” value in [9] was determined as 0.1 ×10⁻⁶ cm/s.
